Where two headings read alike, the source gives them in different places.
How the values were obtained:
androgen receptor = target: T1, androgen receptor (Homo sapiens, UniProt P10275); experiment: Androgen receptor binding test; parameters: expressed in transfected cells
T1 sequence (P10275 1-920): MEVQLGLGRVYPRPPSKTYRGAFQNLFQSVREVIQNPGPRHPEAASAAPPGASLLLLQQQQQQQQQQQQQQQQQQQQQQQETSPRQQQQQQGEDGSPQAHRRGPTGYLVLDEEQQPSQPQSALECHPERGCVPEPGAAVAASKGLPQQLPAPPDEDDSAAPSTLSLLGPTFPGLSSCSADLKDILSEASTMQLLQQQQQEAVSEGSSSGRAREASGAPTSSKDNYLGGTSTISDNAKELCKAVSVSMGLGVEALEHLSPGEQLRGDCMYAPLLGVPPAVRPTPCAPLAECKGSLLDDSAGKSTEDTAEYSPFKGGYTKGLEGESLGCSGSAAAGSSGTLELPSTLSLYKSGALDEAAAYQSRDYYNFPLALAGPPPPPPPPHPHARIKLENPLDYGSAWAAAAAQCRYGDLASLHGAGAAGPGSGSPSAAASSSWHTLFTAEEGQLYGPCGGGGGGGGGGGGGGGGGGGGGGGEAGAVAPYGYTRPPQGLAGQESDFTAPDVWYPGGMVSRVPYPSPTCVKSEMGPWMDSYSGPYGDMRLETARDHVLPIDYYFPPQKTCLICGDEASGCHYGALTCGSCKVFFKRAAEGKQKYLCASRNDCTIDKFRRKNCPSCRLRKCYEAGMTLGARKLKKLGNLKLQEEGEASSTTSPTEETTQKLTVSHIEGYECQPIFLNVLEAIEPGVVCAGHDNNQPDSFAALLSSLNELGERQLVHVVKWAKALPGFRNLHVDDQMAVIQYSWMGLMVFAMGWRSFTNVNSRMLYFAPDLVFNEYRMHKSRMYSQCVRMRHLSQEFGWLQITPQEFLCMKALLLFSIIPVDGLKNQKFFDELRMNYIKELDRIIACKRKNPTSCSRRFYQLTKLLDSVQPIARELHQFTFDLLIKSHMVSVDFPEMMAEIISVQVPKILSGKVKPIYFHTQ
Method: Using cytosol from progesterone receptor-expressing insect cells (Hi5), competitive binding to the progesterone receptor was determined from the ability to displace ^3H-progesterone as reference substance from the receptor.
3. Androgen Receptor Binding Test: […]

[1] = target: T2, fusion protein from the PR-ligand-binding domain and a Gal4-transactivation domain (Homo sapiens, UniProt P06401); experiment: Progestational action by transactivation test (CHO K1 reporter cells); assay type: cell-based; conditions: for Emax: read-out: Progesterone receptor Agonism efficacy
T2 construct: expressed in transfected cells; host or cells: CHO K1 cells, stably transfected
Method: 4. Determination of Progestational Action by Means of Transactivation Tests:
The culture medium used for culture of the cells used for the assay was DMEM (Dulbecco's Modified Eagle Medium: […] glucose; PAA, #E15-009) with 10% FCS (Biochrom, S0115, batch #615B), 4 mM L-glutamine, 1% penicillin/streptomycin, 1 mg/ml G418 and 0.5 μg/ml puromycin.
Reporter cell lines (CHO K1 cells stably transfected with a fusion protein from the PR-ligand-binding domain and a Gal4-transactivation domain and a reporter construct, which contained luciferase under the control of a Gal4-responsive promoter) were seeded at a density of 4×10^4 cells per well in white, opaque tissue culture plates each with 96 wells (PerkinElmer, #P12-106-017) and kept in culture medium with 3% DCC-FCS (serum treated with activated charcoal to remove interfering components contained in the serum). The test compounds were added eight hours later, and the cells were incubated with the compounds for 16 hours. The tests were carried out in triplicate. At the end of incubation the medium containing the effector was removed and replaced with lysis buffer. After luciferase assay substrate (Promega, #E1501) had been added, the 96-well plates were then put in a microplate luminometer (Pherastar, BMG Labtech), and the luminescence was measured. The IC50 values were evaluated using software for calculating dose-effect relations.

[2] = reference substance 3H-testosterone, cytosol from AR-expressing insect cells (Hi5), read-out: Androgen receptor IC50
[3] = CHO K1 reporter cells, 16 hours incubation
[4] = CHO K1 reporter cells, 16 hours incubation, read-out: Progesterone receptor Agonism EC50

T2 sequence (P06401 679-913 limits assumed): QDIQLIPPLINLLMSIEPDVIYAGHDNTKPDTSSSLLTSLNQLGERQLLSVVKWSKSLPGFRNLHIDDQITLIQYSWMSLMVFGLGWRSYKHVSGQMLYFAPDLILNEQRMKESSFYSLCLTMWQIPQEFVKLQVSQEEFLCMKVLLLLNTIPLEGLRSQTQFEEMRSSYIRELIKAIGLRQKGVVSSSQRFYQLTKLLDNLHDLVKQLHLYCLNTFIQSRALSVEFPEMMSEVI
T2 sequence (P04386 1-147 partner limits assumed): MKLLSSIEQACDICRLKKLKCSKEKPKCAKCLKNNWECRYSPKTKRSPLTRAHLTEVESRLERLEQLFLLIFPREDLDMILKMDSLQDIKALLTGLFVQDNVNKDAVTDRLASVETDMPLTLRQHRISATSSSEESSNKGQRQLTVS

| Compound | IC50 (androgen receptor; [2]) [nM] | Emax [1, 3] [%] | Progesterone receptor Agonism EC50 [1, 3] | IC50 (androgen receptor) [nM] | EC50 [1] [nM] | Emax ([1]; CHO-K1, 16 h) [%] | EC50 [1, 4] [nM] |
| --- | --- | --- | --- | --- | --- | --- | --- |
| CC[C@]12CC[C@H]3[C@@H]([C@H]4C[C@H]4C4=C(Cl)C(=O)CC[C@@H]43)[C@@H]1[C@@H]1C[C@@H]1[C@@]21C=CC(=O)O1 [Example 8, 6β,7β;15β,16β-Bismethylene-4-chloro-17β-hydroxy-18-methyl-19-nor-17α-pregna-4,20(Z)-dien-3-one-21-carboxylic acid γ-lactone] | 4300 | 9.8 | – | – | – | – | – |
| CC[C@]12CC[C@H]3[C@@H](C[C@@H](CO)C4=CC(=O)CC[C@@H]43)[C@@H]1[C@@H]1C[C@@H]1[C@@]21C=CC(=O)O1 [Example 10, 17β-Hydroxy-6β-hydroxymethylene-18-methyl-15β,16β-methylene-19-nor-17α-pregna-4,20(Z)-dien-3-one-21-carboxylic acid γ-lactone] | 1000 | – | inactive | – | – | – | – |
| C[C@@H]1CC2=CC(=O)CC[C@@H]2[C@H]2CC[C@@]3(C)[C@@H]([C@H]4C[C@H]4[C@@]34C=CC(=O)O4)[C@@H]21 [Example 14A, 17β-Hydroxy-7α-methyl-15α,16α-methylene-19-nor-17α-pregna-4,20(Z)-dien-3-one-21-carboxylic acid γ-lactone] | – | – | – | 74 | 16 | 86.3 | – |
| CC[C@]12CC[C@H]3[C@@H](C=CC4=CC(=O)CC[C@@H]43)[C@@H]1[C@@H]1C[C@@H]1[C@@]21C=CC(=O)O1 [Example 3, 17β-Hydroxy-18-methyl-15β,16β-methylene-19-nor-17α-pregna-4,6,20(Z)-trien-3-one-21-carboxylic acid γ-lactone] | – | – | – | 1300 | 1.4 | 34.2 | – |
| C[C@]12CC[C@H]3[C@@H](C[C@@H](CO)C4=CC(=O)CC[C@@H]43)[C@@H]1[C@@H]1C[C@@H]1[C@@]21C=CC(=O)O1 [Example 21, 17β-Hydroxy-6β-hydroxymethylene-15β,16β-methylene-19-nor-17α-pregna-4,20(Z)-dien-3-one-21-carboxylic acid γ-lactone] | 1000 | 21 | – | – | – | – | 780 |
| C[C@]12CC[C@H]3[C@@H](CCC4=C(Cl)C(=O)CC[C@@H]43)[C@@H]1[C@H]1C[C@H]1[C@@]21C=CC(=O)O1 [Example 18, 4-Chloro-17β-hydroxy-15α,16α-methylene-19-nor-17α-pregna-4,20(Z)-dien-3-one-21-carboxylic acid γ-lactone] | – | – | – | 140 | 810 | 25.7 | – |
| C[C@]12CC[C@H]3[C@@H](CCC4=CC(=O)CC[C@@H]43)[C@@H]1[C@@H]1C[C@@H]1[C@@]21C=CC(=O)O1 [Example 19, 17β-Hydroxy-15β,16β-methylene-19-nor-17α-pregna-4,20(Z)-dien-3-one-21-carboxylic acid γ-lactone] | – | – | – | 52 | – | – | – |
| C[C@]12CC[C@H]3[C@@H](CC4(CC4)C4=CC(=O)CC[C@@H]43)[C@@H]1[C@@H]1C[C@@H]1[C@@]21C=CC(=O)O1 [Example 22, 6,6-(1,2-Ethanediyl)-17β-hydroxy-15β,16β-methylene-19-nor-17α-pregna-4,20(Z)dien-3-one-21-carboxylic acid γ-lactone] | – | – | – | – | 1.1 | 126 | – |
| C[C@]12CC[C@H]3[C@@H](CCC4=C(Cl)C(=O)CC[C@@H]43)[C@@H]1[C@@H]1C[C@@H]1[C@@]21C=CC(=O)O1 [Example 27, 4-Chloro-17β-hydroxy-15β,16β-methylene-19-nor-17α-pregna-4,20(Z)-dien-3-one-21-carboxylic acid γ-lactone] | – | – | – | 810 | 330 | 49.6 | – |
| C[C@]12CC[C@H]3[C@@H](C=CC4=CC(=O)CC[C@@H]43)[C@@H]1[C@H]1C[C@H]1[C@@]21C=CC(=O)O1 [Example 13, 17β-Hydroxy-15α,16α-methylene-19-nor-17α-pregna-4,6,20(Z)-trien-3-one-21-carboxylic acid γ-lactone] | 5100 | 37.1 | – | – | – | – | 150 |
| CC[C@]12CC[C@H]3[C@@H]([C@H]4C[C@H]4C4=CC(=O)CC[C@@H]43)[C@@H]1[C@@H]1C[C@@H]1[C@@]21C=CC(=O)O1 [Example 1, 6β,7β;15β,16β-Bismethylene-17β-hydroxy-18-methyl-19-nor-17α-pregna-4,20(Z)-dien-3-one-21-carboxylic acid γ-lactone] | – | – | – | 280 | 1.5 | 62.8 | – |
| C=C[C@@H]1CC2=CC(=O)CC[C@@H]2[C@H]2CC[C@@]3(CC)[C@@H]([C@@H]4C[C@@H]4[C@@]34C=CC(=O)O4)[C@@H]21 [Example 6A, 17β-Hydroxy-7α-vinyl-18-methyl-15β,16β-methylene-19-nor-17α-pregna-4,20(Z)-dien-3-one-21-carboxylic acid γ-lactone] | – | – | – | 45 | 140 | 35.2 | – |
| C=C[C@@H]1CC2=CC(=O)CC[C@@H]2[C@H]2CC[C@@]3(C)[C@@H]([C@@H]4C[C@@H]4[C@@]34C=CC(=O)O4)[C@@H]21 [Example 25A, 17β-Hydroxy-15β,16β-methylene-7α-vinyl-19-nor-17α-pregna-4,20(Z)-dien-3-one-21-carboxylic acid γ-lactone] | – | – | – | 37 | 560 | 46.5 | – |
| CC[C@@H]1CC2=CC(=O)CC[C@@H]2[C@H]2CC[C@@]3(CC)[C@@H]([C@@H]4C[C@@H]4[C@@]34C=CC(=O)O4)[C@H]12 [Example 5A, 17β-Hydroxy-7α-ethyl-18-methyl-15β,16β-methylene-19-nor-17α-pregna-4,20(Z)-dien-3-one-21-carboxylic acid γ-lactone] | – | – | – | 110 | 99 | 35.7 | – |
| CC[C@]12CC[C@H]3[C@H]([C@@H]1[C@@H]1C[C@@H]1[C@@]21C=CC(=O)O1)[C@H](C)CC1=CC(=O)CC[C@@H]13 [Example 4A, 7α,18-Bismethyl-17β-hydroxy-15β,16β-methylene-19-nor-17α-pregna-4,20(Z)-dien-3-one-21-carboxylic acid γ-lactone] | – | – | – | 60 | 39 | 71.1 | – |
| CC[C@]12CC[C@H]3[C@@H]([C@@H]4C[C@@H]4C4=CC(=O)CC[C@@H]43)[C@@H]1[C@@H]1C[C@@H]1[C@@]21C=CC(=O)O1 [Example 2, 6α,7α;15β,16β-Bismethylene-17β-hydroxy-18-methyl-19-nor-17α-pregna-4,20(Z)-dien-3-one-21-carboxylic acid γ-lactone] | – | – | – | 450 | – | – | – |
| CC[C@]12CC[C@H]3[C@@H](CCC4=CC(=O)CC[C@@H]43)[C@@H]1[C@@H]1C[C@@H]1[C@@]21C=CC(=O)O1 [Example 9, 17β-Hydroxy-18-methyl-15β,16β-methylene-19-nor-17α-pregna-4,20(Z) dien-3-one-21-carboxylic acid γ-lactone] | – | – | – | – | 1.6 | 56 | – |
